Experimental data as given in ChEMBL document CHEMBL2062499, “Synthesis of benzofuran based 1,3,5-substituted pyrazole derivatives: as a new class of potent antioxidants and antimicrobials--a novel accost to amend biocompatibility” (Bioorg Med Chem Lett, 2012).

Tests used:
Escherichia coli [1] = experiment: Antibacterial activity Escherichia coli ATCC 25922 at 1 mg/ml after 24 hrs by well plate method; type: functional; conditions: ATCC 25922, 24 h, read-out: DIZ
Staphylococcus aureus [2] = experiment: Antibacterial activity Staphylococcus aureus ATCC 25923 at 1 mg/ml after 24 hrs by well plate method; type: functional; conditions: ATCC 25923, 24 h, read-out: DIZ
Pseudomonas aeruginosa [3] = experiment: Antibacterial activity Pseudomonas aeruginosa ATCC 27853 at 1 mg/ml after 24 hrs by well plate method; type: functional; conditions: ATCC 27853, 24 h, read-out: DIZ
Escherichia coli [4] = experiment: Antibacterial activity Escherichia coli ATCC 25922 at 0.5 mg/ml after 24 hrs by well plate method; type: functional; conditions: ATCC 25922, 24 h, read-out: DIZ
Staphylococcus aureus [5] = experiment: Antibacterial activity Staphylococcus aureus ATCC 25923 at 0.5 mg/ml after 24 hrs by well plate method; type: functional; conditions: ATCC 25923, 24 h, read-out: DIZ
Pseudomonas aeruginosa [6] = experiment: Antibacterial activity Pseudomonas aeruginosa ATCC 27853 at 0.5 mg/ml after 24 hrs by well plate method; type: functional; conditions: ATCC 27853, 24 h, read-out: DIZ
Aspergillus flavus [7] = experiment: Antifungal activity against Aspergillus flavus MTCC 3306 at 1 mg/ml after 72 hrs by well plate method; type: functional; conditions: MTCC 3306, 72 h, read-out: DIZ
Aspergillus flavus [8] = experiment: Antifungal activity against Aspergillus flavus MTCC 3306 at 0.5 mg/ml after 72 hrs by well plate method; type: functional; conditions: MTCC 3306, 72 h, read-out: DIZ
[9] = Antifungal activity against Chrysosporium keratinophilum MTCC 3017 at 1 mg/ml after 72 hrs by well plate method; type: functional
[10] = Antifungal activity against Chrysosporium keratinophilum MTCC 3017 at 0.5 mg/ml after 72 hrs by well plate method; type: functional
Candida albicans [11] = experiment: Antifungal activity against Candida albicans MTCC 2827 at 1 mg/ml after 72 hrs by well plate method; type: functional; conditions: MTCC 2827, 72 h, read-out: DIZ
Candida albicans [12] = experiment: Antifungal activity against Candida albicans MTCC 2827 at 0.5 mg/ml after 72 hrs by well plate method; type: functional; conditions: MTCC 2827, 72 h, read-out: DIZ
[13] = tested on: Radical scavenging activity; experiment: Antioxidant activity assessed as DPPH radical scavenging activity after 20 mins by UV-Vis spectrophotometric analysis; type: functional
Liver microsomes = experiment: Antioxidant activity in Wistar rat liver microsomes assessed as inhibition of microsomal lipid peroxidation after 15 mins by MDA-TBA assay; type: functional, Microsome

| SMILES | zone of inhibition at 1000 µg/mL (Escherichia coli [1]) | zone of inhibition at 1000 µg/mL (Staphylococcus aureus [2]) | zone of inhibition at 1000 µg/mL (Pseudomonas aeruginosa [3]) | zone of inhibition at 500 µg/mL (Escherichia coli [4]) | zone of inhibition at 500 µg/mL (Staphylococcus aureus [5]) | zone of inhibition at 500 µg/mL (Pseudomonas aeruginosa [6]) | zone of inhibition at 1000 µg/mL (Aspergillus flavus [7]) | zone of inhibition at 500 µg/mL (Aspergillus flavus [8]) | inhibition zone (IZ) [9] | inhibition zone (IZ) [10] | zone of inhibition at 1000 µg/mL (Candida albicans [11]) | zone of inhibition at 500 µg/mL (Candida albicans [12]) | IC50 [13] | IC50 (Liver microsomes) |
| --- | --- | --- | --- | --- | --- | --- | --- | --- | --- | --- | --- | --- | --- | --- |
| COc1ccc(NC(=O)N2N=C(c3cc4ccccc4o3)CC2c2ccc(O)c(OC)c2)cc1 (stereo unspecified) | 13 mm | 2 mm | 7 mm | 1 mm | 1 mm | 5 mm | 4 mm | 3 mm | 4 mm | 2 mm | 5 mm | 3 mm | 25 uM/ml | 29 uM/ml |
| COc1cc(C2CC(c3cc4ccccc4o3)=NN2C(=O)Cl)ccc1O (stereo unspecified) | 3 mm | 2 mm | 2 mm | 2 mm | 1 mm | 2 mm | 2 mm | 1 mm | 3 mm | 2 mm | 4 mm | 3 mm | 135 uM/ml | 147 uM/ml |
| COc1cc(C2CC(c3cc4ccccc4o3)=NN2C(=O)Nc2cccc(O)c2)ccc1O (stereo unspecified) | 3 mm | 2 mm | 3 mm | 1 mm | 1 mm | 2 mm | 2 mm | 1 mm | 2 mm | 1 mm | 3 mm | 1 mm | 21 uM/ml | 24 uM/ml |
| COc1cc(C2CC(c3cc4ccccc4o3)=NN2C(=O)Nc2ccccc2O)ccc1O (stereo unspecified) | 3 mm | 2 mm | 4 mm | 1 mm | 1 mm | 2 mm | 2 mm | 1 mm | 4 mm | 2 mm | 4 mm | 3 mm | 19 uM/ml | 22 uM/ml |
| COc1cc(C2CC(c3cc4ccccc4o3)=NN2)ccc1O (stereo unspecified) | 0 mm | 0 mm | 0 mm | 0 mm | 0 mm | 0 mm | 0 mm | 0 mm | 1 mm | 0 mm | 1 mm | 1 mm | 100 uM/ml | 112 uM/ml |
| COc1cc(C2CC(c3cc4ccccc4o3)=NN2C(=O)Nc2ccc(Cl)cc2)ccc1O (stereo unspecified) | 17 mm | 6 mm | 18 mm | 11 mm | 4 mm | 15 mm | 10 mm | 7 mm | 9 mm | 7 mm | 20 mm | 17 mm | 107 uM/ml | 121 uM/ml |
| COc1cc(C2CC(c3cc4ccccc4o3)=NN2C(=O)Nc2ccc(O)c(O)c2)ccc1O (stereo unspecified) | 2 mm | 2 mm | 5 mm | 1 mm | 1 mm | 3 mm | 3 mm | 2 mm | 2 mm | 1 mm | 2 mm | 1 mm | 9.5 uM/ml | 11 uM/ml |
| COc1cc(C2CC(c3cc4ccccc4o3)=NN2C(=O)Nc2ccc(F)cc2)ccc1O (stereo unspecified) | 18 mm | 16 mm | 19 mm | 12 mm | 14 mm | 16 mm | 11 mm | 9 mm | 15 mm | 11 mm | 24 mm | 21 mm | 110 uM/ml | 125 uM/ml |
| COc1cc(C2CC(c3cc4ccccc4o3)=NN2C(=O)Nc2ccc(Br)cc2)ccc1O (stereo unspecified) | 16 mm | 8 mm | 10 mm | 10 mm | 6 mm | 7 mm | 6 mm | 4 mm | 10 mm | 9 mm | 19 mm | 15 mm | 105 uM/ml | 115 uM/ml |
| COc1cc(C2CC(c3cc4ccccc4o3)=NN2C(=O)Nc2ccc([N+](=O)[O-])cc2)ccc1O (stereo unspecified) | 15 mm | 8 mm | 9 mm | 9 mm | 6 mm | 7 mm | 5 mm | 3 mm | 4 mm | 3 mm | 5 mm | 4 mm | 103 uM/ml | 113 uM/ml |
| COc1cc(NC(=O)N2N=C(c3cc4ccccc4o3)CC2c2ccc(O)c(OC)c2)ccc1O (stereo unspecified) | 2 mm | 3 mm | 2 mm | 1 mm | 2 mm | 1 mm | 2 mm | 1 mm | 3 mm | 2 mm | 2 mm | 1 mm | 10 uM/ml | 12 uM/ml |
| CN[C@@H]1[C@H](O[C@H]2[C@H](O[C@H]3[C@H](O)[C@@H](O)[C@H](N=C(N)N)[C@@H](O)[C@@H]3N=C(N)N)O[C@@H](C)[C@]2(O)C=O)O[C@@H](CO)[C@H](O)[C@H]1O [STREPTOMYCIN] | 16 mm | 15 mm | 16 mm | 10 mm | 10 mm | 13 mm | – | – | – | – | – | – | – | – |
| OC(Cn1cncn1)(Cn1cncn1)c1ccc(F)cc1F [FLUCONAZOLE] | – | – | – | – | – | – | 13 mm | 10 mm | 17 mm | 15 mm | 22 mm | 20 mm | – | – |
